{"source": "ChEMBL document CHEMBL1153819", "about": "“Use of acetylcholine binding protein in the search for novel alpha7 nicotinic receptor ligands. In silico docking, pharmacological screening, and X-ray analysis” (J Med Chem, 2009)", "key": {"[1]": {"biological_target": "Acetylcholine-binding protein (Lymnaea stagnalis, UniProt P58154)", "sequence (P58154 whole entry)": "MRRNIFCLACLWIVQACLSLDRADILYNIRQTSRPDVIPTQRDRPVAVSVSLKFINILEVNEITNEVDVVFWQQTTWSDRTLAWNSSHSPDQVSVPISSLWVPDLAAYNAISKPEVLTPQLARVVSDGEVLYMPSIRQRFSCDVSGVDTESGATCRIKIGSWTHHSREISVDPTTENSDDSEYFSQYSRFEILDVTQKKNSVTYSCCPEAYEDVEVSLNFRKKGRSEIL", "assay": "Displacement of [125I]alpha-bungarotoxin from Lymnaea stagnalis His-tagged AchBP"}, "[2]": {"biological_target": "T1, Neuronal acetylcholine receptor; alpha4/beta2 (Homo sapiens, UniProt P17787+P43681)", "T1 sequence (P17787 whole entry)": "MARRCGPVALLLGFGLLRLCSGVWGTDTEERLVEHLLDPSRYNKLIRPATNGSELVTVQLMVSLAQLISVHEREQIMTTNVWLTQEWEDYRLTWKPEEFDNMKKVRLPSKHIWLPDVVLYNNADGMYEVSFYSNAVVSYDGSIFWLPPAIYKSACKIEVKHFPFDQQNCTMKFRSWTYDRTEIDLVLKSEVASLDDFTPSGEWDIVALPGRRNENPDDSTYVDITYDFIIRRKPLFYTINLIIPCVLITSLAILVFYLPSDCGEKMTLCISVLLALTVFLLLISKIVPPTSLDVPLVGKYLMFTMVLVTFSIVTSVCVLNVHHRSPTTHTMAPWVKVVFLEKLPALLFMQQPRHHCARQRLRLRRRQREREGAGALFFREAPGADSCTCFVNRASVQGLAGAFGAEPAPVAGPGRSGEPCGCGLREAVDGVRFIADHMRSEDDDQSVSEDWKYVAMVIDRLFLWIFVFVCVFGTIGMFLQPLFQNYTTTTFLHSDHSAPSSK", "T1 sequence (P43681 whole entry)": "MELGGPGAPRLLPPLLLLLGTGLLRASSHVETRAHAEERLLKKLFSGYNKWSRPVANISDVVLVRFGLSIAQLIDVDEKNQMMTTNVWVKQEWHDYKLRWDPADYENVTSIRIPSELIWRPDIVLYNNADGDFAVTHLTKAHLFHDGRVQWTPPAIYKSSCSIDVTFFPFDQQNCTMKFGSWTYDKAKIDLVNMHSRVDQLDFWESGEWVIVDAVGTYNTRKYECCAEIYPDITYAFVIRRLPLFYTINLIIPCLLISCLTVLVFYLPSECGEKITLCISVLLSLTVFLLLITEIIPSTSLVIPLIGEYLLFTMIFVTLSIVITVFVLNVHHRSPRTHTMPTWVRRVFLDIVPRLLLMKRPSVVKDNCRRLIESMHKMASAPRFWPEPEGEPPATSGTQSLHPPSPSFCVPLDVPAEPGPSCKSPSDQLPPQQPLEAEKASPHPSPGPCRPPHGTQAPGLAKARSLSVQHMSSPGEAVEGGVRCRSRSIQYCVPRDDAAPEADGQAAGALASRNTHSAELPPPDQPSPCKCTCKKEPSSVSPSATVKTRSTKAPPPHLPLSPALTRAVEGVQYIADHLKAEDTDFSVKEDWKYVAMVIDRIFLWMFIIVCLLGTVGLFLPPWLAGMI", "assay": "Displacement of [3H]epibatidine from human alpha4beta2 nAChR expressed in HEK293t cells", "assay_type": "cell-based", "conditions": "HEK-293T"}, "[3]": {"biological_target": "T2, Neuronal acetylcholine receptor subunit alpha-7 (Homo sapiens, UniProt P36544)", "T2 sequence (P36544 whole entry)": "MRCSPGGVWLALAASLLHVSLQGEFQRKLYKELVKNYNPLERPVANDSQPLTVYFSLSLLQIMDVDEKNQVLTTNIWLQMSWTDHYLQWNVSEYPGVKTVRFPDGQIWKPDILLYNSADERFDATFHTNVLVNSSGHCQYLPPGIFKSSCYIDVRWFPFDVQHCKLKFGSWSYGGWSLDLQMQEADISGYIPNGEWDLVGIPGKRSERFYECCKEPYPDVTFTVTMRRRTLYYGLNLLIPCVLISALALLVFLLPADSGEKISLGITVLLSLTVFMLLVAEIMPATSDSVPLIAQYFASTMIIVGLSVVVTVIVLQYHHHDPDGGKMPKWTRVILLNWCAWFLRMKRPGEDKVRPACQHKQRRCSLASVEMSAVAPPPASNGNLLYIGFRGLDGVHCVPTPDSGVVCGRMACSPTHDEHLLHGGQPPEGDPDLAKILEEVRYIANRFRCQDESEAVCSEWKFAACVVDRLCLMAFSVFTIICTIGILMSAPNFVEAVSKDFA", "assay": "Displacement of [125I]alpha-bungarotoxin from human alpha7 nAChR expressed in human SH-SY5Y cells", "assay_type": "cell-based"}, "[4]": {"biological_target": "T2, Neuronal acetylcholine receptor subunit alpha-7", "assay": "Activity at human alpha7 nAChR expressed in Xenopus oocytes assessed as inhibition of acetylcholine-evoked current", "assay_type": "cell-based, Oocyte", "conditions": "for Activity: Oocyte"}, "[5]": {"biological_target": "T1, Neuronal acetylcholine receptor; alpha4/beta2", "assay": "Activity at human alpha4beta2 nAChR expressed in Xenopus oocytes assessed as inhibition of acetylcholine-evoked current", "assay_type": "cell-based, Oocyte", "conditions": "for Activity: Oocyte"}, "[6]": {"biological_target": "T3, 5-hydroxytryptamine receptor 3A (Homo sapiens) (UniProt P46098)", "T3 sequence (whole entry)": "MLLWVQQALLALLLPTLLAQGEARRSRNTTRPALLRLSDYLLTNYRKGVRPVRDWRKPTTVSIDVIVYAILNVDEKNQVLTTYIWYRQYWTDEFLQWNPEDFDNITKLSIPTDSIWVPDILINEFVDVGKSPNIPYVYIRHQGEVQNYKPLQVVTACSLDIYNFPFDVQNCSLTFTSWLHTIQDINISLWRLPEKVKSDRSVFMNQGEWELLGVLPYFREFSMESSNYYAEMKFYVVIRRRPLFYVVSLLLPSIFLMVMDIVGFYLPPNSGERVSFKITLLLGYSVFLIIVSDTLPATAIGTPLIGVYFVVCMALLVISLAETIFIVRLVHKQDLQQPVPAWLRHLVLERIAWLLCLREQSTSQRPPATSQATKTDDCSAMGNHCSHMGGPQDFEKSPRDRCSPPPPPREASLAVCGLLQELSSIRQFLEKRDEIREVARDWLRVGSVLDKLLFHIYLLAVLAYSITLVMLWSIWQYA", "assay": "Inhibition of human 5HT3A receptor"}, "[7]": {"biological_target": "T2, Neuronal acetylcholine receptor subunit alpha-7", "assay": "Binding affinity to human alpha7 nAChR allosteric site assessed as decrease in bungarotoxin Bmax at 100 uM by [125I]alpha-bungarotoxin saturation binding experiment"}, "[8]": {"assay": "Displacement of [3H]epibatidine from Aplysia californica AchBP"}, "[9]": {"biological_target": "T2, Neuronal acetylcholine receptor subunit alpha-7", "assay": "Binding affinity to human alpha7 nAChR allosteric site assessed as increase in bungarotoxin Kd at 100 uM by [125I]alpha-bungarotoxin saturation binding experiment"}}, "note": "Calls of active or inactive are those of the source. No cut-off for these calls is given here."}
{"smiles": "CCN1C2CCC1CC(OC1c3ccccc3CCc3ccccc31)C2", "note": "(centres undefined)", "values": [{"measurement": "Ki", "setting": "[1]", "result": 126, "unit": "nM"}]}
{"smiles": "C[N+]1(C)C2CCC1CC(OC1c3ccccc3CCc3ccccc31)C2", "note": "(centres undefined)", "values": [{"measurement": "Ki", "setting": "[1]", "result": 63.1, "unit": "nM"}, {"measurement": "Activity", "setting": "[2]", "result": "inactive"}, {"measurement": "Ki", "setting": "[3]", "result": 2000, "unit": "nM"}, {"measurement": "IC50", "setting": "[4]", "result": 880, "unit": "nM"}, {"measurement": "Activity", "setting": "[4]", "result": "Dose-dependent effect"}, {"measurement": "IC50", "setting": "[5]", "result": 210, "unit": "nM"}, {"measurement": "Activity", "setting": "[5]", "result": "Dose-dependent effect"}, {"measurement": "Activity", "setting": "[6]", "result": "Active"}, {"measurement": "Activity", "setting": "[7]", "result": "Active"}]}
{"smiles": "CC(=O)OCC[N+](C)(C)C", "note": "[ACETYLCHOLINE]", "values": [{"measurement": "Ki", "setting": "[1]", "result": 3160, "unit": "nM"}]}
{"smiles": "CN1[C@@H]2CC[C@H]1C[C@@H](OC1c3ccccc3CCc3ccccc31)C2", "note": "[DEPTROPINE]", "values": [{"measurement": "Ki", "setting": "[1]", "result": 398, "unit": "nM"}]}
{"smiles": "NC(N)=NCCN1C2CCC1CC(OC1c3ccccc3CCc3ccccc31)C2", "note": "(centres undefined)", "values": [{"measurement": "Ki", "setting": "[1]", "result": 501, "unit": "nM"}]}
{"smiles": "CCCN1CCC(OC2c3ccccc3CCc3ccccc32)CC1", "values": [{"measurement": "Ki", "setting": "[1]", "result": 631, "unit": "nM"}]}
{"smiles": "CN1C2CCC1CC(OC(=O)COC1c3ccccc3CCc3ccccc31)C2", "note": "(centres undefined)", "values": [{"measurement": "Ki", "setting": "[1]", "result": 100, "unit": "nM"}]}
{"smiles": "c1ccc2c(c1)CCc1ccccc1C2OC1CC2CCC(C1)N2", "note": "(centres undefined)", "values": [{"measurement": "Ki", "setting": "[1]", "result": 316, "unit": "nM"}]}
{"smiles": "Cc1ccc2c(c1)C(OC1CC3CCC(C1)N3C)c1ccccc1CC2", "note": "(centres undefined)", "values": [{"measurement": "Ki", "setting": "[1]", "result": 126, "unit": "nM"}]}
{"smiles": "CN1CCC(OC2c3ccccc3CCc3ccccc32)CC1", "note": "[HEPZIDINE]", "values": [{"measurement": "Ki", "setting": "[1]", "result": 1580, "unit": "nM"}]}
{"smiles": "c1ccc(CN2C3CCC2CC(OC2c4ccccc4CCc4ccccc42)C3)cc1", "note": "(centres undefined)", "values": [{"measurement": "Ki", "setting": "[1]", "result": 100, "unit": "nM"}, {"measurement": "Activity", "setting": "[2]", "result": "inactive"}, {"measurement": "Ki", "setting": "[3]", "result": 12600, "unit": "nM"}, {"measurement": "pKi", "setting": "[8]", "result": 6}, {"measurement": "IC50", "setting": "[4]", "result": 1730, "unit": "nM"}, {"measurement": "Activity", "setting": "[4]", "result": "Dose-dependent effect"}, {"measurement": "IC50", "setting": "[5]", "result": 460, "unit": "nM"}, {"measurement": "Activity", "setting": "[5]", "result": "Dose-dependent effect"}, {"measurement": "Activity", "setting": "[6]", "result": "Active"}, {"measurement": "Activity", "setting": "[7]", "result": "Active"}, {"measurement": "Activity", "setting": "[9]", "result": "Active"}]}
{"smiles": "Cc1cccc2c1CCc1ccccc1C2OC1CC2CCC(C1)N2C", "note": "(centres undefined)", "values": [{"measurement": "Ki", "setting": "[1]", "result": 316, "unit": "nM"}]}
{"smiles": "c1ccc2c(c1)CCc1ccccc1C2OC1CCNCC1", "values": [{"measurement": "Ki", "setting": "[1]", "result": 3160, "unit": "nM"}]}
{"smiles": "N=C(CCN1C2CCC1CC(OC1c3ccccc3CCc3ccccc31)C2)NO", "note": "(centres undefined)", "values": [{"measurement": "Ki", "setting": "[1]", "result": 1260, "unit": "nM"}]}
{"smiles": "N#CCCN1C2CCC1CC(OC1c3ccccc3CCc3ccccc31)C2", "note": "(centres undefined)", "values": [{"measurement": "Ki", "setting": "[1]", "result": 1000, "unit": "nM"}]}
{"smiles": "CN1CCC[C@H]1c1cccnc1", "note": "[NICOTINE]", "values": [{"measurement": "pKi", "setting": "[8]", "result": 6.4}]}
